Patent EP0837085A1, “POLYCARBONATE-BASE POLYMER, PRODUCTION PROCESS, RESIN COATING FLUID PREPARED THEREFROM, AND ELECTROPHOTOGRAPHIC PHOTORECEPTOR PREPARED THEREFROM” (IDEMITSU KOSAN COMPANY LIMITED, priority 1994, dated 1996)

How the values were obtained:
[1] = pKa of the starting alcohol, in water at 25°C
Procedure: An ordinary acid, which is represented by HA, in water is in an equilibrium state as shown below. HA + H2 O ⇄ H3 O^+ (+ A)^- [formula] Equilibrium constant Keq is calculated as follows. Keq =([H3 O^+ (] [A)^- ])/([HA] [H2 O]) [formula] wherein [ ] represents the concentration of each chemical species.
In ordinary diluted solutions, the concentration of water [H2O] hardly changes and is constantly 55.5M, and the equilibrium constant Keq can be converted into another equation, to show the following acidity constant Ka. Ka =(([A)^- ] [H3 O^+ ])/([HA]) [formula]

[2] = physchem

| pKa [1] | Compound | pKa ([2]; water) | further results |
| --- | --- | --- | --- |
| 5 | OC(C(F)(F)F)C(F)(F)F | – | – |
| – | OCCCCCO [1,5-pentanediol, reference compound] | 17 | – |
| 11 | OCC(F)(F)C(F)(F)C(F)(F)C(F)(F)CO [1H,1H,6H,6H-perfluoro-1,6-hexanediol] | – | – |
| – | OCC(F)(F)F [2,2,2-trifluoroethanol] | 11 | – |
| – | OCC(F)(F)C(F)(F)C(F)(F)CO [2,2,3,3,4,4-hexafluoro-1,5-pentanediol] | – | pKa [2]: 11 |
